Laboratory results as given in PubChem BioAssay (NCI).
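Cells were grown in 96-well plates and exposed to each compound for 48 hours at five concentrations; endpoints were interpolated linearly between bracketing concentrations, or set to the highest concentration if not reached. At the GI50, growth is halved. At the TGI there is no net growth.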

What was measured:
Assay in all cases: inhibition of tumour cell growth, NCI panel, 48 h
[1] = tested on: OVCAR-3 ovarian
[2] = tested on: MDA-N
[3] = tested on: ACHN renal
[4] = tested on: SK-MEL-2 melanoma
[5] = tested on: RXF 393 renal
[6] = tested on: HT29 colon
[7] = tested on: SR leukemia
[8] = tested on: K-562 leukemia
[9] = tested on: SF-539 CNS
[10] = tested on: T-47D breast

Structure (SMILES)	TGI [1] [µM]	TGI [2] [µM]	TGI [3] [µM]	TGI [4] [µM]	TGI [5] [µM]	TGI [6] [µM]	TGI [7] [µM]	TGI [8] [µM]	TGI [9] [µM]	TGI [10] [µM]	GI50 [1] [µM]
COc1cc(/C=C/C(=O)c2c(=O)o[nH][n+]2-c2ccccc2)ccc1[O-]	4.82	6.25	6.17	6.06	4.65	6.64	4.54	8.61	5.92	11.7	–
COc1nc2c(c(=O)n1C)N[C@H]1[C@H](OC(C)=O)[C@@H](OC(C)=O)CO[C@H]1N2	> 100	> 100	> 100	> 100	> 100	> 100	> 100	> 100	> 100	> 100	–
N#Cc1nc(CCCCCN2C(=O)c3ccccc3C2=O)oc1N	> 100	> 100	> 100	> 100	> 100	> 100	> 100	> 100	> 100	> 100	–
C/C(=N\NC(=S)N1CCCCC1)c1cccc(C)n1	12.1	20.3	2.67	22.4	14.4	16.2	> 100	> 73.8	0.413	16.9	–
CCc1c(Cc2cccc3ccccc23)n2c(nc1=O)SCC2OCCO (stereo not given)	–	> 100	> 100	> 100	> 100	> 100	89.4	> 100	> 100	> 100	–
c1ccc(CCNCc2ccco2)nc1	> 100	> 100	> 100	> 100	> 100	> 100	> 100	> 33.6	> 100	> 28.5	–
Cc1ccc(C(=O)O)c(CC2Cc3c(C)cccc3C2=O)c1 (stereo not given)	> 100	> 100	> 100	> 100	> 100	> 100	> 100	> 100	> 100	> 100	–
CC(C)=CCC[C@@H](C)C1=C(Nc2ccccc2Cl)C(O)=C(C)C(=O)C1=O	16.5	27	11.1	19.2	32.7	13.6	> 57.6	> 64.1	19.8	34.1	–
Cc1nc2c3c(ncn2n1)Oc1c(c(-c2ccccc2)nn1-c1ccccc1)C3c1ccc(Cl)cc1 (stereo not given)	> 100	> 100	> 100	> 100	> 100	> 100	> 100	> 100	97.1	> 100	–
CC1OC2=N[C@@H]1C(=O)N[C@@H](C(C)C)C1=N[C@H](C(=O)N[C@@H](C(C)C)C3=N[C@H](C(=O)N[C@@H](C(C)C)C4=N[C@H](C(=O)N[C@H]2C(C)C)C(C)O4)C(C)O3)C(C)O1 (stereo not given in full)	> 10	> 10	> 10	> 10	> 10	> 10	> 10	> 10	> 10	> 10	–
NC(=S)N/N=C\c1ccc(OCc2cccc(COc3ccc(/C=N/NC(N)=S)cc3)n2)cc1	> 100	> 100	> 100	38.1	47.9	> 100	> 100	> 100	> 100	0.921	–
Cc1ccncc1.F[B-](F)(F)F.[Pt+2].c1ccc(-c2cccc(-c3ccccn3)n2)nc1	> 44.3	> 100	25.1	> 100	38.4	27.9	> 100	> 100	15.1	42.9	0.835
CC(=O)OCC1OC(n2c3c(c(-c4cccc5ccccc45)c(C#N)c2=S)CCCC3)C(OC(C)=O)C(OC(C)=O)C1OC(C)=O (stereo not given)	> 100	> 100	> 100	> 100	> 100	> 100	> 100	> 100	> 100	> 100	–
O=C(NCc1cccc(C(F)(F)F)c1)c1cc2sccc2nc1C(F)(F)F	> 100	> 100	> 100	> 100	> 100	> 100	> 100	> 100	> 100	> 100	–
CCOC(=O)c1c(N2CCCC2)ncn(-c2ccccc2)c1=S	> 100	> 100	> 100	> 100	> 100	> 100	> 100	> 100	> 100	> 100	–
CN1CCN(c2c(Cl)cc(Cl)c3[nH]c4ccccc4c(=O)c23)CC1	33.5	20.7	17	28.1	25.2	16.1	> 100	> 48.6	15.3	38.5	–
COc1ccc(N(C)C(=O)N(C)c2ccc([N+](=O)[O-])cc2)cc1	84.2	24.2	> 100	45.3	76.2	> 100	> 100	> 100	96.6	> 100	–
C(=C\c1cccc(/C=C/c2ccccn2)n1)/c1ccccn1	> 100	> 100	> 100	> 100	> 100	> 100	> 100	> 100	> 100	> 100	–
CCOP(=O)(OCC)C(Nc1cccc(F)c1)c1ccccc1 (stereo not given)	> 100	> 100	> 100	> 100	> 100	> 100	> 100	> 100	> 100	> 100	–
CCOC(=O)C1(C(=O)OCC)[C@H](c2ccccc2)C2=NO[C@@H]3CCC[C@H]1[C@H]23	96.8	> 100	> 100	> 100	> 100	> 100	> 100	> 100	> 100	> 100	–
